Measured values reported in US10472341B2, “Bicyclic tetrahydrothiazepine derivatives useful for the treatment of neoplastic and/or infectious diseases” (APEIRON BIOLOGICS AG, priority 2015, dated 2019).
Where two headings read alike, the source gives them in different places.

Experiments:
[1] = system: aCD3/aCD28-stimulated human PBMCs; assay: Cytokine production in aCD3/aCD28 stimulated human PBMCs; type: cell-based; conditions: PBMC, 18 h
Procedure, shortened: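 Compound effects measured in buffy-coat PBMCs activated 18 h at 37° C by 1 μg/mL each of soluble anti-CD3 (OKT3) and anti-CD28 (28.2), 1e6 cells/mL. Cytokines in harvested supernatants read by MSD or HTRF.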

[2] = system: aCD3/aCD28-stimulated human CD4+-T-cells; assay: IL-2 production and activation markers in aCD3/aCD28 stimulated isolated human CD4+-T-cells; type: cell-based; conditions: IL-2 production at 3 μM compound
Procedure, shortened: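 CD4+ T cells isolated from buffy-coat PBMCs by microbeads were plated in Xvivo medium (1.5*10^5 cells/well) and stimulated with anti-CD3/28 mAbs plus compound. IL-2 measured by ELISA in supernatants at 24 h or 48 h; CD25 and proliferation by flow cytometry, CD69 at 24 h. Activity classes based on IL-2 at 3 μM compound.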

[3] = enhancement of IFN-γ production, read-out: Activity Class IFN-γ
[4] = enhancement of IL-2 production, read-out: Activity Class IL-2

SMILES	EC50 [1, 3]	EC50 [1, 4]	Activity Class CD4+ [2]
CC(C)NC(=O)c1ccc2c(c1)N(Cc1ccc(Cl)c(Cl)c1)C(=O)[C@@H](N)CS2(=O)=O.Cl [Example 88, (3R)-3-amino-5-[(3,4-dichlorophenyl)methyl]-1,1,4-trioxo-N-(propan-2-yl)-2,3,4,5-tetrahydro-1λ^6,5-benzothiazepine-7-carboxamide hydrochloride]	1580 to 5010 nM	> 5010 nM	C (IL-2 production at 3 μM compound concentration between 2-fold increase as compared to mean IL-2 production of stimulated cells in the absence of compounds and <2 ng/mL)
CC(C)NC(=O)c1ccc2c(c1)N(Cc1ccc(Cl)c(F)c1)C(=O)[C@@H](N)CS2(=O)=O.Cl [Example 89, (3R)-3-amino-5-[(4-chloro-3-fluorophenyl)methyl]-1,1,4-trioxo-N-(propan-2-yl)-2,3,4,5-tetrahydro-1λ^6,5-benzothiazepine-7-carboxamide hydrochloride]	1580 to 5010 nM	> 5010 nM	C (IL-2 production at 3 μM compound concentration between 2-fold increase as compared to mean IL-2 production of stimulated cells in the absence of compounds and <2 ng/mL)
Cl.N[C@H]1CS(=O)(=O)c2cc(F)c(C(=O)NCC(F)(F)F)cc2N(Cc2ccc(Cl)cc2)C1=O [Example 92, (3R)-3-amino-5-[(4-chlorophenyl)methyl]-8-fluoro-1,1,4-trioxo-N-(2,2,2-trifluoro-ethyl)-2,3,4,5-tetrahydro-1λ^6,5-benzothiazepine-7-carboxamide hydrochloride]	1580 to 5010 nM	1580 to 5010 nM	B (IL-2 production at 3 μM compound concentration between 2-10 ng/mL)
Cl.N[C@H]1CS(=O)(=O)c2cc(F)c(C(=O)NCCC(F)(F)F)cc2N(Cc2ccc(Cl)cc2)C1=O [Example 93, (3R)-3-amino-5-[(4-chlorophenyl)methyl]-8-fluoro-1,1,4-trioxo-N-(3,3,3-trifluoro-propyl)-2,3,4,5-tetrahydro-1λ^6,5-benzothiazepine-7-carboxamide hydrochloride]	1580 to 5010 nM	< 1580 nM	A (IL-2 production at 3 μM compound concentration >10 ng/mL)
C[C@H](NC(=O)c1cc2c(cc1F)S(=O)(=O)C[C@H](N)C(=O)N2Cc1ccc(Cl)cc1)C(F)(F)F.Cl [Example 94, (3R)-3-amino-5-[(4-chlorophenyl)methyl]-8-fluoro-1,1,4-trioxo-N-[(2S)-1,1,1-trifluoropropan-2-yl]-2,3,4,5-tetrahydro-1λ^6,5-benzothiazepine-7-carboxamide hydrochloride]	1580 to 5010 nM	> 5010 nM	C (IL-2 production at 3 μM compound concentration between 2-fold increase as compared to mean IL-2 production of stimulated cells in the absence of compounds and <2 ng/mL)
CCC(C)NC(=O)c1cc2c(cc1F)S(=O)(=O)C[C@H](N)C(=O)N2Cc1ccc(Cl)cc1.Cl (stereo partly drawn) [Example 95, (3R)-3-amino-N-(butan-2-yl)-5-[(4-chlorophenyl)methyl]-8-fluoro-1,1,4-trioxo-2,3,4,5-tetrahydro-1λ^6,5-benzothiazepine-7-carboxamide hydrochloride]	< 1580 nM	1580 to 5010 nM	B (IL-2 production at 3 μM compound concentration between 2-10 ng/mL)
CC(C)(C)NC(=O)c1cc2c(cc1F)S(=O)(=O)C[C@H](N)C(=O)N2Cc1ccc(Cl)cc1.Cl [Example 96, (3R)-3-amino-N-tert-butyl-5-[(4-chlorophenyl)methyl]-8-fluoro-1,1,4-trioxo-2,3,4,5-tetrahydro-1λ^6,5-benzothiazepine-7-carboxamide hydrochloride]	< 1580 nM	< 1580 nM	A (IL-2 production at 3 μM compound concentration >10 ng/mL)
Cl.N[C@H]1CS(=O)(=O)c2cc(F)c(C(=O)N[C@H]3C[C@@H]3c3ccccc3)cc2N(Cc2ccc(Cl)cc2)C1=O [Example 98, (3R)-3-amino-5-[(4-chlorophenyl)methyl]-8-fluoro-1,1,4-trioxo-N-[(1S,2R)-2-phenylcyclopropyl]-2,3,4,5-tetrahydro-1λ^6,5-benzothiazepine-7-carboxamide hydrochloride]	< 1580 nM	< 1580 nM	A (IL-2 production at 3 μM compound concentration >10 ng/mL)
CC1(NC(=O)c2cc3c(cc2F)S(=O)(=O)C[C@H](N)C(=O)N3Cc2ccc(Cl)cc2)CC1.Cl [Example 99, (3R)-3-amino-5-[(4-chlorophenyl)methyl]-8-fluoro-N-(1-methylcyclopropyl)-1,1,4-trioxo-2,3,4,5-tetrahydro-1λ^6,5-benzothiazepine-7-carboxamide hydrochloride]	1580 to 5010 nM	1580 to 5010 nM	B (IL-2 production at 3 μM compound concentration between 2-10 ng/mL)
CC1(NC(=O)c2cc3c(cc2F)S(=O)(=O)C[C@H](N)C(=O)N3Cc2ccc(Cl)cc2)CCC1.Cl [Example 100, (3R)-3-amino-5-[(4-chlorophenyl)methyl]-8-fluoro-N-(1-methylcyclobutyl)-1,1,4-trioxo-2,3,4,5-tetrahydro-1λ^6,5-benzothiazepine-7-carboxamide hydrochloride]	< 1580 nM	< 1580 nM	A (IL-2 production at 3 μM compound concentration >10 ng/mL)
CC1(C)CC1NC(=O)c1cc2c(cc1F)S(=O)(=O)C[C@H](N)C(=O)N2Cc1ccc(Cl)cc1.Cl (stereo partly drawn) [Example 101, (3R)-3-amino-5-[(4-chlorophenyl)methyl]-N-(2,2-dimethylcyclopropyl)-8-fluoro-1,1,4-trioxo-2,3,4,5-tetrahydro-1λ^6,5-benzothiazepine-7-carboxamide hydrochloride]	< 1580 nM	1580 to 5010 nM	B (IL-2 production at 3 μM compound concentration between 2-10 ng/mL)
Cl.N[C@H]1CS(=O)(=O)c2cc(F)c(C(=O)NC3CC(F)(F)C3)cc2N(Cc2ccc(Cl)cc2)C1=O [Example 102, (3R)-3-amino-5-[(4-chlorophenyl)methyl]-N-(3,3-difluorocyclobutyl)-8-fluoro-1,1,4-trioxo-2,3,4,5-tetrahydro-1λ^6,5-benzothiazepine-7-carboxamide hydrochloride]	< 1580 nM	< 1580 nM	A (IL-2 production at 3 μM compound concentration >10 ng/mL)
Cl.N[C@H]1CS(=O)(=O)c2cc(F)c(C(=O)NCc3ccccc3)cc2N(Cc2ccc(Cl)cc2)C1=O [Example 103, (3R)-3-amino-N-benzyl-5-[(4-chlorophenyl)methyl]-8-fluoro-1,1,4-trioxo-2,3,4,5-tetrahydro-1λ^6,5-benzothiazepine-7-carboxamide hydrochloride]	< 1580 nM	< 1580 nM	A (IL-2 production at 3 μM compound concentration >10 ng/mL)
CCCCCCCNC(=O)c1cc2c(cc1F)S(=O)(=O)C[C@H](N)C(=O)N2Cc1ccc(Cl)cc1.Cl [Example 104, (3R)-3-amino-5-[(4-chlorophenyl)methyl]-8-fluoro-N-heptyl-1,1,4-trioxo-2,3,4,5-tetrahydro-1λ^6,5-benzothiazepine-7-carboxamide hydrochloride]	< 1580 nM	< 1580 nM	A (IL-2 production at 3 μM compound concentration >10 ng/mL)
